Results as given in US20240390468A1, “SURVIVIN AND MAGE-A9 DUAL-TARGETED IMMUNOTHERAPY” (IMMUNOVACCINE TECHNOLOGIES INC., priority 2022, published 2024).
Entries after “also recorded” stand apart in the source; their conditions may differ. One block for each sequence: values may come before it.

Key:
[1] = tested on: spleen cells of HLA-A2/DR1 transgenic mice immunized with MAGE-A9 full length recombinant protein; test: IFN-γ ELISPOT, MAGE-A9 immunogenic HLA-A2 peptides; format: cell-based; conditions: for IFN-γ response (ELISPOT): HLA-A2/DR1 mice, three experiments
Method: FIGS. 11A and 11B depict IFN-γ ELISPOT results of 1st experiment for the MAGE-A9 immunogenic HLA-A2 peptides. Induction of IFN-γ response induced against HLA-A2 peptides of MAGE-A9 as detected by IFN-γ ELISPOT assay. A group of 10 mice was immunized with MAGE-A9 full length recombinant protein admixed with poly(I:C). Mice were sacrificed 34 days after 1st immunization and spleen cells were tested in IFN-γ ELISPOT after stimulation with dendritic cells loaded with the individual candidate or control peptides (FIG. 11A) or after direct stimulation with the individual candidate or control peptides (FIG. 11B). DCE: Dendritic cell empty; NS: Non stimulated; INF, gp100 and EBV: irrelevant HLA-A2 control peptides. Student T-test *p<0.05; ** p<0.005; *** p<0.0005; **** p<0.00005.
(§1) IFN-γ ELISPOTs was performed to measure antigen-specific T-cell activation upon stimulation with peptides containing the putative epitopes. […]
(§2) Groups of ten 6-12 weeks-old HLA-A1, HLA-A2/DR1, HLA-A24, HLA-All (as a surrogate for HLA-A3 allele) and HLA-B7 male/female mice were immunized three times s.c. and i.p., 14 days apart, with 30 μg of MAGE-A9 his-tag full-length recombinant protein admixed with 50 μg (s.c.) or 200 μg (i.p.) of Poly(I:C) in a final volume of 100 μl. On day 34, mice were sacrificed. Splenocytes were isolated from spleens and treated with ACK lysis buffer to lyse contaminating erythrocytes. Splenocytes were stimulated with the candidate peptides alone or with dendritic cells loaded with the candidate peptides. The immune response was measured using IFN-γ ELISPOT assays (BD). Then spots were counted using an ELISPOT counter (CTL Analyzer) and enumerated as number of spot-forming units (SFU) per well. Each experiment was repeated two or three times (except for the experiment with HLA-A11 (as a surrogate for HLA-A3 allele) mice which was done only once).
Student's t-tests were performed to compare two groups (non-stimulated versus stimulated with test peptide). To indicate significance, p-values are represented in the figures by * p<0.05, ** p<0.01, *** p<0.001, and **** p=0.0001. All data are presented as means with standard error of the mean (SEM).
The experiment was repeated three times for a total number of 30 mice (FIGS. 11, 12, and 13). The immune response for peptides 111, 24, 223 and 270 via Chromium 51 (^51Cr) release assays (CTL assays) is also presented in Example 6. […] These tests offer a very high sensitivity, which explains why the INF-Y response for these peptides appears to be weaker, although the peptides are responsive in other assays (see Examples 6).

[2] = tested on: spleen cells of HLA-A1 transgenic mice immunized with MAGE-A9 full length recombinant protein; test: IFN-γ ELISPOT, MAGE-A9 immunogenic HLA-A1 peptides; format: cell-based
Method: FIGS. 14A and 14B depict IFN-γ ELISPOT results of 1st experiment for the MAGE-A9 immunogenic HLA-A1 peptides. IFN-γ response induced by HLA-A1 candidate peptides of MAGE-A9 as detected by IFN-γ ELISPOT assay. Two groups of 3 and 5 mice were immunized respectively with poly(I:C) alone (as control; bar on the left) and with MAGE-A9 full-length recombinant protein admixed with poly(I:C) (bar on the right). Mice were sacrificed 34 days after 1st immunization and spleen cells were tested in IFN-γ ELISPOT after stimulation with dendritic cells loaded with the individual candidate or control peptides (FIG. 14A) or after direct stimulation with the individual candidate or control peptides (FIG. 14B). DCE: Dendritic cell empty; NS: Non stimulated; Ctrl HLA-A1; irrelevant control HLA-A1 peptide. Student T-test *p<0.05; ** p<0.005; *** p<0.0005; **** p<0.00005. […]
(§3) Groups of ten 6-12 weeks-old HLA-A1, HLA-A2/DR1, HLA-A24, HLA-All (as a surrogate for HLA-A3 allele) and HLA-B7 male/female mice were immunized three times s.c. and i.p., 14 days apart, with 30 μg of MAGE-A9 his-tag full-length recombinant protein admixed with 50 μg (s.c.) or 200 μg (i.p.) of Poly(I:C) in a final volume of 100 μl. […] The immune response was measured using IFN-γ ELISPOT assays (BD). Then spots were counted using an ELISPOT counter (CTL Analyzer) and enumerated as number of spot-forming units (SFU) per well. […]

[3] = tested on: spleen cells of HLA-A11 transgenic mice immunized with MAGE-A9 full length recombinant protein; test: IFN-γ ELISPOT, MAGE-A9 immunogenic HLA-A3/A11 peptides; format: cell-based
Description: FIGS. 23A and 23B depict IFN-γ ELISPOT results of the experiment for the MAGE-A9 immunogenic HLA-A3/A11 peptides. IFN-γ response induced by HLA-A3 candidate peptides of MAGE-A9 as detected by IFN-γ ELISPOT assay. Two group of 3 and 10 HLA-A11 transgenic mice were immunized respectively with DPX-Empty alone (as control; bar on the left) and with MAGE-A9 full-length recombinant protein admixed with poly(I:C) (bar on the right). Mice were sacrificed 36 days after 1st immunization and spleen cells were tested in IFN-γ ELISPOT after stimulation with dendritic cells loaded with the individual candidate or control peptides (FIG. 23A) or after direct stimulation with the individual candidate or control peptides (FIG. 23B). DCE: Dendritic cell empty; NS: Non stimulated; A3-Ctrl; irrelevant control HLA-A3 peptide.
as §1, §2
(§4) Student's t-tests were performed to compare two groups (non-stimulated versus stimulated with test peptide). […]

[4] = target: MHC class 1 allele A*02:01 (Homo sapiens, UniProt P04439, D140Y/D185E/D98H/E176V/E277Q/G131W/G231S/I119V/I121R/I166T/I218V/L300P/L318F/N151K/N90K/P208A/P217A/Q86G/Q94H/R138H/R169H/T345S); test: REVEAL binding of HLA-A2 binding peptides; conditions: for binding to MHC class 1 allele A*02:01 (in words): Higher REVEAL score
[5] = tested on: peptide-loaded RMA-S HHD cells; test: Chromium 51 release assay (CTL assay); format: cell-based, mice; conditions: for CTL response (51Cr-release): effector:target 75:1, 50:1, 25:1, mice immunized with recombinant MAGE-A9 and poly(I:C)
[6] = target: T1, HLA-A2 (Homo sapiens, UniProt P04439, D140Y/D185E/D98H/E176V/E277Q/G131W/G231S/I119V/I121R/I166T/I218V/L300P/N151K/N90K/P208A/P217A/Q86G/Q94H/R138H/R169H); test: Flex-T in vitro HLA binding assay (HLA class I ELISA); conditions: Flex-T monomer peptide exchange, β2-microglobulin ELISA
T1 construct: purchased Biolegend, USA
Method: Internal in vitro assay that assesses the binding of each of the peptides to HLA-A2 as a part of the potency assay development was performed using the Flex-T in vitro binding assay.
Flex-T technology (Biolegend, USA) offers the opportunity to quantitatively measure the binding affinity of peptides to their respective MHC Class I receptors (In this case HLA-A2). Flex-T was made of MHC monomers loaded with a peptide that can be degraded using a UV light source. This allowed for a peptide exchange when the UV irradiation was done in the presence of the peptide of interest which is not UV-labile.
The binding of the peptide of interest to the Flex-T monomer was quantified using an HLA class I ELISA method based on the detection of β2-microglobulin subunit of HLA class I complexes, after capturing the complex through the conjugated biotin. To this end, biotinylated HLA class I monomer-peptide complex was first captured in streptavidin coated microtiter wells. Subsequently, lRP-conjugated anti-human 02-microglobulin was added to detect intact HLA class I complexes. Only intact HLA class I complexes were recognized.
The relative potency was then calculated compared to a reference lot using parallel line analysis as per USP <1034>.

[7] = tested on: spleen cells of HLA-B7 transgenic mice immunized with MAGE-A9 full length recombinant protein; test: IFN-γ ELISPOT, MAGE-A9 immunogenic HLA-B7 peptides; format: cell-based; conditions: individual responses per mouse
Method: FIGS. 19A and 19B depict IFN-γ ELISPOT results of 1st experiment for the MAGE-A9 immunogenic HLA-B7 peptides. IFN-γ response induced by HLA-B7 candidate peptides of MAGE-A9 as detected by IFN-γ ELISPOT assay. Two group of 3 and 5 mice were immunized respectively with poly(I:C) alone (as control; bar on the left) and with MAGE-A9 full-length recombinant protein admixed with poly(I:C) (bar on the right). Mice were sacrificed 34 days after 1st immunization and spleen cells were tested in IFN-γ ELISPOT after stimulation with dendritic cells loaded with the individual candidate or control peptides (FIG. 19A) or after direct stimulation with the individual candidate or control peptides (FIG. 19B). DCE: Dendritic cell empty; NS: Non stimulated; B7-Ctrl; irrelevant control HLA-B7 peptide. Student T-test *p<0.05; ** p<0.005; *** p<0.0005; **** p<0.00005. […]
as §3

[8] = tested on: spleen cells of HLA-A24 transgenic mice immunized with MAGE-A9 full length recombinant protein; test: IFN-γ ELISPOT, MAGE-A9 immunogenic HLA-A24 peptides; format: cell-based; conditions: three experiments
Method: FIGS. 16A and 16B depict IFN-γ ELISPOT results of 1st experiment for the MAGE-A9 immunogenic HLA-A24 peptides. IFN-γ response induced against HLA-A24 candidate peptides of MAGE-A9 as detected by IFN-γ ELISPOT assay. Two group of 3 and 5 mice were immunized respectively with poly(I:C) alone (as control; bar on the left) and with MAGE-A9 full-length recombinant protein admixed with poly(I:C) (bar on the right). Mice were sacrificed 34 days after 1st immunization and spleen cells were tested in IFN-γ ELISPOT after stimulation with dendritic cells loaded with the individual candidate or control peptides (FIG. 16A) or after direct stimulation with the individual candidate or control peptides (FIG. 16B). DCE: Dendritic cell empty; NS: Non stimulated; A24-Ctrl; irrelevant control HLA-A24 peptide. Student T-test *p<0.05; ** p<0.005; *** p<0.0005; **** p<0.00005.
as §1, §2, §4

Sequence: ALLIIVLGV [compound 199, MAGE-A9 peptide antigen]
IFN-γ response (ELISPOT) [1]: highest

Sequence: EVDPAGHSY [peptide 167]
IFN-γ response (ELISPOT) ([2]; HLA-A1 mice, two experiments): very strong; also recorded: highly immunogenic

Sequence: FLLHKYRVK [peptide 118, MAGE-A9 peptide antigen]
IFN-γ response (ELISPOT) ([3]; only with peptide-loaded DC): good reactivity

binding to MHC class 1 allele A*02:01 (in words) [4]: high binding
Sequence: FLWGSKAHA [MAGE-A9 270, MAGE-A9 peptide antigen]
CTL response (51Cr-release) [5]: elicited a response

Sequence: FMFQEALKL [peptide 102, MAGE-A9 peptide antigen]
IFN-γ response (ELISPOT) [1]: highest; also recorded: consistently observed
IFN-γ response (ELISPOT), significance ([1]; splenocytes stimulated with peptide-loaded DCs): statistically significant in two out of three experiments

Sequence: GLMGAQEPT [MAGE-A9 24, MAGE-A9 peptide antigen]
CTL response (51Cr-release) [5]: elicited a response

Sequence: IVLGVILTK [peptide 203, MAGE-A9 peptide antigen]
IFN-γ response (ELISPOT) ([3]; restimulated with peptide alone): weak but significant reactivity

HLA-A2 binding [6]: high affinity binding
binding affinity compared to M9-A2-270 [4]: lower binding affinity
binding to MHC class 1 allele A*02:01 (in words) [4]: high binding
Sequence: KVAELVHFL [MAGE-A9 111]
IFN-γ response (ELISPOT) [1]: consistently higher
IFN-γ response (ELISPOT) ([2]; first experiment, peptide-loaded DC (FIG. 14A), not observed in the 2nd experiment): moderate response
specific lysis compared to M9-A2-270 [5]: higher specific lysis
CTL response (51Cr-release) [5]: elicited a response

Sequence: LMLGEFLKL [SurA2.M, survivin peptide antigen HLA-A2]
HLA-A2 binding [6]: high affinity binding
binding to MHC class 1 allele A*02:01 (in words) [4]: high binding

Sequence: MPKAALLII [peptide 195]
IFN-γ response (ELISPOT) [7]: greatest activity; also recorded: gave an immune response

Sequence: NYKRYFPVI [peptide 141]
IFN-γ response (ELISPOT) [8]: interesting; also recorded: highest responder; also recorded: good immune responses; also recorded: stronger and more consistent results

Sequence: STFKNWPFL [SurA24, survivin peptide antigen HLA-A24]
binding to MHC class 1 allele A*02:01 (in words) [4]: high binding
Kinetic score ([4]; MHC class 1 allele A*02:01): 0.00
On-rate T1/2 ([4]; MHC class 1 allele A*02:01): 31.52 h
R-score ([4]; MHC class 1 allele A*02:01): 0.00
Off-rate T1/2 ([4]; MHC class 1 allele A*02:01, * = no significant, stable complex at end of measurement period): 7.2 min
REVEAL score ([4]; MHC class 1 allele A*02:01, Positive Control 100): 61.93

Sequence: SVMGVYVGK [peptide 225, MAGE-A9 peptide antigen]
IFN-γ response (ELISPOT) ([3]; HLA-A11 mice, peptide-loaded DC or peptides alone): very strong; also recorded: very immunogenic

Sequence: SYILVTALG [compound 174]
IFN-γ response (ELISPOT) [8]: interesting; also recorded: good immune responses

Sequence: VYYTLWSQF [compound 71]
IFN-γ response (ELISPOT) [8]: interesting
